From ChEMBL document CHEMBL4342461, “Schwarzinicines A-G, 1,4-Diarylbutanoid-Phenethylamine Conjugates from the Leaves of Ficus schwarzii” (J Nat Prod, 2020)

Columns and labels:
MCF7 = experiment: Cytotoxicity against human MCF7 cells after 72 hrs by neutral red uptake assay; type: cell-based; details: MCF7, 72 h
HCT-116 = experiment: Cytotoxicity against human HCT116 cells after 72 hrs by neutral red uptake assay; type: cell-based; details: HCT-116, 72 h
A549 = experiment: Cytotoxicity against human A549 cells after 72 hrs by neutral red uptake assay; type: cell-based; details: A549, 72 h
Aorta [1] = experiment: Vasorelaxant activity in Sprague-Dawley rat aortic rings assessed as reduction in phenylephrine-induced contractions; type: functional, tissue-based
Aorta [2] = experiment: Vasorelaxant activity in Sprague-Dawley rat aortic rings assessed as reduction in phenylephrine-induced contractions by measuring maximum relaxation magnitude relative to control; type: functional

Row | SMILES | EC50 (Aorta [1]) [nM] | IC50 (MCF7) [µM] | IC50 (HCT-116) [µM] | IC50 (A549) [µM] | Activity (Aorta [1]) | Emax (Aorta [2]) [%]
1 | CC[C@]1(O)C[C@@H]2CN(CCc3c([nH]c4ccccc34)[C@@](C(=O)OC)(c3cc4c(cc3OC)N(C)[C@H]3[C@@](O)(C(=O)OC)[C@H](OC(C)=O)[C@]5(CC)C=CCN6CC[C@]43[C@@H]65)C2)C1 [VINBLASTINE] | – | 0.001 | 0.0005 | 0.01 | – | –
2 | CC(CCc1ccc(O)cc1)NCCc1ccc(O)c(O)c1 (stereo not drawn) [DOBUTAMINE] | 2500 | – | – | – | – | 92
3 | COc1ccc(CCC(Cc2ccc(OC)c(OC)c2)N(C)CCc2ccc(OC)c(OC)c2)cc1OC (stereo not drawn) | 960 | > 10 | > 10 | > 10 | Dose-dependent effect | 106

Now from value to molecule, other results behind:

Row | EC50 (Aorta [1]) [nM] | SMILES | IC50 (MCF7) [µM] | IC50 (HCT-116) [µM] | IC50 (A549) [µM] | Activity (Aorta [1]) | Emax (Aorta [2]) [%]
4 | 1880 | COc1ccc(CCC(Cc2ccc(OC)c(OC)c2)NCCc2ccc3c(c2)OCO3)cc1OC (stereo not drawn) | – | – | – | Dose-dependent effect | 120
5 | 2010 | COc1ccc(CCNC(CCc2ccc(OC)c(OC)c2)Cc2ccc(OC)c(OC)c2)cc1OC (stereo not drawn) | > 10 | > 10 | > 10 | Dose-dependent effect | 119
6 | 2100 | COc1ccc(CCC(Cc2ccc(OC)c(OC)c2)NCCc2cc(OC)c3c(c2)OCO3)cc1OC (stereo not drawn) | – | – | – | Dose-dependent effect | 116
